Source: patent publication US20250270159A1, “1-(CYCLOBUTANEMETHYLIDENE)-2, 4, 5-TRIMETHOXYBENZENE COMPOUND AND PREPARATION METHOD AND USE THEREOF” (CHENGDU XINRUI TAIKANG TECHNOLOGY CO., LTD., priority 2023, published 2025)

What was measured:
[1] = system: IL-1; experiment: IL-1 in cerebral cortex of TBI rats; assay type: in vivo, SD rats; conditions: 30 mg/kg ip 2 h after TBI; 24 h after administration; FIG. 3
Procedure: The experimental grouping and drug administration plan were as follows. • Sham operation group (Group P): saline was given with the same volume as in the CTMB group; • Model group (T group): a blank emulsion was given with the same volume as in the CTMB group; • Medium dose group (Group M): a dose of 30 mg/kg of CTMB emulsion injection was given.
The experimental grouping and drug administration plan were the same as the test 3. After 2 h of the TBI modeling, different groups of rats were administered intraperitoneally. After 24 h of the administration, the rats were deeply anesthetized, the head was severed and the brain was removed, about 60-120 mg of hemisphere cortex was taken out from the hemisphere on the blood side, 10 times the volume of ice-cold centrifugal buffer used for biochemical assays was added, homogenization was carried out in an ice bath for 10 min, and centrifugation was carried out at 4° C. and 14000 rpm/min for 30 min. The supernatant was extracted, and inflammatory factors IL-1, IL-6, and TNF-α were tested according to the instructions of IL-1, IL-6, and TNF-α assay kits, respectively.

[2] = system: ischemic stroke induced by the filament technique in rats; experiment: Acute phase of ischemic stroke induced by the filament technique (MCAO), short-term neurological deficit score; assay type: in vivo; conditions: for mNSS score / Garcia score: 24 h after MCAO modeling; for mNSS score: scale 0-18, higher worse; for Garcia score: scale 3-18, lower worse
Procedure: Zea Longa score was used to determine whether the modeling was successful after 2 h of MCAO surgery, and rats with successful modeling were taken and randomly grouped for administering drugs.
The rats were randomly divided into a sham operation group (Sham group, given a blank emulsion with a volume equal to that of the high-dose CTMB group), a model group (Vehicle group, given a blank emulsion with a volume equal to that of the high-dose CTMB group), a low-dose CTMB group (CTMB-L group, 10 mg/kg), a high-dose CTMB group (CTMB-H group, 20 mg/kg), and an edaravone dexborneol injection concentrated solution group (EDB group, commercially available, 3 mg/kg). 10 rats were included in each group, which were administered by intraperitoneal injection. It should be noted that in the experiment, the mode of administration for rats was intraperitoneal injection, and a ratio of the effective dose of CTMB, the active ingredient in the emulsion injection, to the unit mass of the human body was within a range of 0.2 mg-4.0 mg/kg, which referred to the ratio of the effective dose of CTMB, the active ingredient in the emulsion injection, to the unit mass of the human body during intravenous infusion, which was extrapolated from the effective dose of the rats. Considering the different bioavailability, peak concentration, and peak time of the drug due to different species and different modes of administration, the effective dose of the active ingredient CTMB in the emulsion injection to the unit mass of human body was finally determined to be 0.2 mg-4.0 mg/kg through conversion.
The rats were fasted for 12 h before procedure, and the rats were anesthetized with 10% chloral hydrate (350 mg/kg, i.p.). The rats were fixed in the supine position, and the body temperature was maintained at about 37° C. For neck preparation, a median neck incision was made, the muscle and fascia were separated along the inner edge of the sternocleidomastoid muscle to expose the right side, the common carotid artery (CCA), external carotid artery (ECA), and internal carotid artery (ICA) were separated bluntly, and the lines were disposed of proximally in the CCA proximal end, ICA, and ECA for backup. The CCA proximal end and ECA were ligatured, and an arterial clip was used to temporarily close the ICA, then a small hole was poked at a position of CCA having about 4 mm from the bifurcation with a needle. The filament was inserted into the ICA through the CCA, the arterial clipped on ICA was loosened, and the filament was slowly advanced. When the mark on the filament reached the bifurcation and a slight resistance was felt, the thin wire at ICA was tightened, and saline was used to clean the wound and then suture was performed. The sham procedure was the same as the experimental group except that no filament was inserted. […]
Referring to the Zea Longa Neurologic Function Score (Longa EZ, Weinstein PR, Carlson S, Cummins R. Reversible middle cerebral artery occlusion without craniectomy in rats. Stroke. 1989 January; 20(1):84-91. doi: 10.1161/01.str.20.1.84.), rats were scored after 2 h of procedure when they were awake from anesthesia. […]
The neural function of the rats was comprehensively evaluated after 24 h of modeling using the modified mNSS score and Garcia score, and mNSS scoring criteria was shown in Table 3 and Garcia scoring criteria was shown in Table 4. The rats were evaluated for locomotion, sensation, and climbing, and symmetry of limbs. […]

[3] = system: reduced glutathione (GSH); experiment: GSH content in striatum of PD mice; assay type: in vivo, C57 mice; conditions: Group D, CTMB 20 mg/kg ip, after 4 weeks, injured side
Procedure: The mice were randomly divided into a sham operation group (group S, given a blank emulsion with a volume equal to that of the administered group), a model group (group M, given a blank emulsion with a volume equal to that of the administered group), a CTMB group (20 mg/kg, group D), and a levodopa group (levodopa: benserazide hydrochloride=4:1, 12 mg/kg, group L), each group included 10-12 mice, and all of them were administered intraperitoneally.
Malondialdehyde (MDA) is a commonly used indicator of membrane lipid peroxidation, reduced glutathione (GSH) is one of the most commonly used non-enzymatic indicators of antioxidant substances, and superoxide dismutase (SOD) is a common indicator of antioxidant enzymes. After completing the evaluation of motor function after 4 weeks of drug administration, the mice were deeply anesthetized and perfused with 20 mL of saline via the heart. The brain was rapidly severed to isolate the striatal region on the injured side (right side), weighed, and placed into a 1.5 mL EP tube, and homogenized at low temperature by adding phosphate-buffered saline (PBS) at the ratio of a weight of animal tissues (g) to a volume of homogenization medium (mL) of 1:9. […]

COc1cc(OC)c(OC)cc1C=C1CCC1 [CTMB, 1-(cyclobutylidenemethyl)-2,4,5-trimethoxybenzene] was tested, and the “content of IL-1 in cerebral cortex tissue” value [1] was “significantly reduced”, the “toxic side effects associated with administration” value ([2]; 10 and 20 mg/kg ip, MCAO rats, acute phase test) was “No toxic side effects” and the mNSS score ([2]; CTMB-H 20 mg/kg ip) was 6.65 ± 2.30^##, **. For the same molecule, the Garcia score ([2]; CTMB-H 20 mg/kg ip) was 10.05 ± 1.81^##, **, the mNSS score ([2]; CTMB-L 10 mg/kg ip) was 6.88 ± 2.26^##, ** and the Garcia score ([2]; CTMB-L 10 mg/kg ip) was 9.65 ± 1.02^##, *. For the same molecule, the GSH [3] was 46.38 ± 6.94 μmol/g protein.
